Results: patent US5272268A, “Dipeptide derivatives” (Shionogi & Co., Ltd., priority 1990, dated 1993)
Where a chain is given by its changes, count along the chain named.

Experiments:
[1] = target: T1, intrinsic renin contained in the renatured human plasma (Homo sapiens, UniProt P00797); assay: Renin inhibition in vitro (angiotensin I production in renatured human plasma, RIA); format: biochemical; conditions: 60 minutes incubation, read-out: IC50 (concentration which inhibits renin activity by 50%)
T1 construct: intrinsic renin contained in the renatured plasma; tissue Ortho Bi-Level Plasma Renin Control; host or cells: human plasma (lyophilized, renatured in water)
T1 sequence (P00797 67-406): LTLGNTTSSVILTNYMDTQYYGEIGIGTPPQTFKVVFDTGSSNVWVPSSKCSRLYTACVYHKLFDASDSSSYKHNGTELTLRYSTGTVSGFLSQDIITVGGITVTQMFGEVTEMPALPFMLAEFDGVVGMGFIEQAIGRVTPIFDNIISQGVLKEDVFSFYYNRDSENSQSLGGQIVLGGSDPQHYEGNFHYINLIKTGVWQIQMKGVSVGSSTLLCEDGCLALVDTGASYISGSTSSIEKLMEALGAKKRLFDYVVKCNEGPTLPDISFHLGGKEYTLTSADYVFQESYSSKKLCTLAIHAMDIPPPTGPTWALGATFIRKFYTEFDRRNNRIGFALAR
Description: Commercially available lyophilized human plasma (Ortho, Bi-Level Plasma Renin Control) was renatured by dissolving in water. Angiotensinogen was allowed to react with intrinsic renin contained in the renatured plasma to generate angiotensin I (AI), which was quantitatively measured with radioimmunoassay (RIA). Thus, potency of the plasma renin was determined on the basis of the AI production. For this purpose, Renin RIA kit (RENIN' RIABEAD®) manufacture by Dinabott was used. All of the reagents necessary for the measurement of the AI production were available from the attachment of the kit, and the measurement was conducted according to the manufacturer's direction.
To the plasma (0.2 ml) were added all of the reagents, and the mixture was combined with either of sample solutions (0.002 ml) of various concentrations which had been prepared by dissolving a test compound in different amount of ethanol. Ethanol (0.002 ml) containing no test compound was used as a control solution. The amount of AI produced was measured after 60 minutes incubation. Renin inhibition potency of test compound was determined by comparing the amount of AI produced by a sample solution with that produced by a control solution.

Plasma renin activity = target: T2, Plasma renin activity (Macaca fascicularis, UniProt Q6DLS0); assay: Renin inhibition in vivo (plasma renin activity after oral administration to hyperrenin monkeys); set-up: species or system Crab-eating monkeys (Cynomolgus monkeys); conditions: low sodium diet + furosemide; for Renin inhibition potency, 4 h: 4 h after administration; for Renin inhibition potency, 8 h: 8 h after administration
T2 construct: Two milliliters of blood was collected from femoral vein; from tissue; host or cells: plasma of cynomolgus monkeys made hyperreninemic by low sodium diet and furosemide
T2 sequence (Q6DLS0 67-406): T1 sequence (P00797 67-406) with T2A, I148L, S169A
Description: Crab-eating monkeys (Cynomolgus monkeys) (2.8-5.0 kg) were fed on low sodium diet (Na 7.15 mg/100 g feed) for six days, during which the monkeys intramuscularly received furosemide (2 mg/kg body weight) every other day from the second day of the experiment, in order to make the monkeys hyperrenin condition.
After seven days from the low sodium feeding, the monkeys were restrained on a monkey chair. Compounds to be tested are dissolved in 0.1 M citric acid/physiological saline or suspended in water with addition of β-cyclodextrin, and orally administered to the monkeys using a stomach probe (15 mg/kg body weight). […] For the blood collection, an injection syringe containing 30 μl of 6% aqueous EDTA·2Na solution was used. The collected blood was transferred into a test tube and centrifuged (3000 rpm, 10 minutes) at 4° C., and the resultant supernatant was used to determine the renin content. Plasma renin activity (AI(ng)/ml/h value) was measured using Radioimmunoassy kit commercially available from Dinabott Co. in the same manner as in the foregoing in vitro test. Renin inhibition potencies of the compounds tested, which were expressed as a percentage of renin activity relative to the activity before the administration, are listed in Table 12.

Compound: O=C(C[C@H](O)[C@H](CC1CCCCC1)NC(=O)[C@H](Cc1cscn1)NC(=O)[C@@H](CC(=O)N1CCOCC1)Cc1cccc2ccccc12)NCCN1CCOCC1 [ES-6864, reference compound]
- IC50 [1]: 3.75 nM

Compound: CC(C)(C)S(=O)(=O)C[C@@H](Cc1ccccc1)C(=O)N[C@@H](Cc1c[nH]cn1)C(=O)N[C@@H](CC1CCCCC1)[C@@H](O)CC(=O)c1ccncc1 [Example 1, 3-t-Butylsulfonyl-2(S)-phenylmethylpropionyl-His-1(S)-cyclohexylmethyl-2(S)-hydroxy-4-oxo-4-(4-pyridyl)butylamide]
- Renin inhibition potency, Max (Plasma renin activity; 30 mg/kg orally): 33%
- Renin inhibition potency, Mean (Plasma renin activity; 30 mg/kg orally): 22%
- Renin inhibition potency, 4 h (Plasma renin activity; 30 mg/kg orally): 22%
- IC50 [1]: 6.09 nM

Compound: COc1ccc(C(=O)C[C@H](O)[C@H](CC2CCCCC2)NC(=O)[C@H](Cc2c[nH]cn2)NC(=O)[C@H](Cc2ccccc2)CS(=O)(=O)C(C)(C)C)cc1 [Example 22]
- IC50 [1]: 39.2 nM

Compound: CC(C)S(=O)(=O)C[C@@H](Cc1ccccc1)C(=O)N[C@@H](Cc1c[nH]cn1)C(=O)N[C@@H](CC1CCCCC1)[C@@H](O)CC(=O)c1ccccc1 [Example 37]
- IC50 [1]: 14.5 nM

Compound: CCS(=O)(=O)C[C@@H](Cc1ccccc1)C(=O)N[C@@H](Cc1c[nH]cn1)C(=O)N[C@@H](CC1CCCCC1)[C@@H](O)CC(=O)c1ccccc1 [Example 38]
- IC50 [1]: 39.2 nM

Compound: O=C(C[C@H](O)[C@H](CC1CCCCC1)NC(=O)[C@H](Cc1c[nH]cn1)NC(=O)[C@@H](CC(=O)N1CCOCC1)Cc1cccc2ccccc12)c1ccccc1 [Example 40]
- Renin inhibition potency, Max (Plasma renin activity; 15 mg/kg orally): 44%
- Renin inhibition potency, Mean (Plasma renin activity; 15 mg/kg orally): 30%
- Renin inhibition potency, 4 h (Plasma renin activity; 15 mg/kg orally): 44%
- IC50 [1]: 18.1 nM

Compound: O=C(C[C@H](O)[C@H](CC1CCCCC1)NC(=O)[C@H](Cc1c[nH]cn1)NC(=O)[C@@H](CC(=O)N1CCOCC1)Cc1cccc2ccccc12)c1ccncc1 [Example 42]
- IC50 [1]: 13 nM

Compound: O=C(N[C@@H](CC1CCCCC1)[C@@H](O)CNS(=O)(=O)N1CCOCC1)[C@H](Cc1cscn1)NC(=O)[C@H](Cc1ccccc1)NS(=O)(=O)N1CCOCC1 [Example 53]
- Renin inhibition potency, Max (Plasma renin activity; 15 mg/kg orally): 96%
- Renin inhibition potency, Mean (Plasma renin activity; 15 mg/kg orally): 85%
- Renin inhibition potency, 4 h (Plasma renin activity; 15 mg/kg orally): 94%
- Renin inhibition potency, 8 h (Plasma renin activity; 15 mg/kg orally): 73%
- IC50 [1]: 0.36 nM

Compound: CN(C)S(=O)(=O)NCC(O)C(CC1CCCCC1)NC(=O)C(Cc1cscn1)NC(=O)C(Cc1ccccc1)NS(=O)(=O)N1CCOCC1 (centres unmarked) [Example 56]
- Renin inhibition potency, Max (Plasma renin activity; 15 mg/kg orally): 93%
- Renin inhibition potency, Mean (Plasma renin activity; 15 mg/kg orally): 72%
- Renin inhibition potency, 4 h (Plasma renin activity; 15 mg/kg orally): 82%
- Renin inhibition potency, 8 h (Plasma renin activity; 15 mg/kg orally): 85%
- IC50 [1]: 0.7 nM

Compound: CC(C)(C)S(=O)(=O)C[C@@H](Cc1ccccc1)C(=O)N[C@@H](Cc1cscn1)C(=O)N[C@@H](CC1CCCCC1)[C@@H](O)CNS(=O)(=O)c1ccccc1 [Example 62]
- IC50 [1]: 1.24 nM

Compound: CC(C)(C)S(=O)(=O)CC(Cc1ccccc1)C(=O)NC(Cc1cscn1)C(=O)NC(CC1CCCCC1)C(O)CNS(C)(=O)=O (centres unmarked) [Example 69]
- IC50 [1]: 0.53 nM

Compound: CC(C)OC(=O)C(O)C(CC1CCCCC1)NC(=O)[C@H](Cc1cnc[nH]1)NC(=O)[C@@H](CC(=O)N1CCOCC1)Cc1cccc2ccccc12 (some centres unmarked) [KRI-1314, reference compound]
- IC50 [1]: 21.3 nM
